According to ChEMBL document CHEMBL4351028, “Benzoyl indoles with metabolic stability as reversal agents for ABCG2-mediated multidrug resistance” (Eur J Med Chem, 2019):
Activity calls are given as the source filed them. The calls are words filed in the database; no cut-off is given here.

What was measured:
[1] = Cytotoxicity against human NCI-H460/MX20 cells assessed as concentration that causes inhibition of cell viability by <=20% incubated for 24 hrs by MTT assay; format: cell-based
[2] = test system: NCI-H460; experiment: Cytotoxicity against human NCI-H460 cells assessed as concentration that causes inhibition of cell viability by <=20% incubated for 24 hrs by MTT assay; format: cell-based; conditions: nci-h460, 24 h
[3] = test system: NCI-H460; experiment: Cytotoxicity against human NCI-H460 cells assessed as inhibition of cell viability incubated for 2 hrs by MTT assay; format: cell-based; conditions: NCI-H460, 2 h
[4] = biological target: T1, Broad substrate specificity ATP-binding cassette transporter ABCG2 (Homo sapiens, UniProt Q9UNQ0); experiment: (§1) Reversal of ABCG2-mediated multidrug resistance in human NCI-H460/MX20 cells assessed as potentiation of mitoxantrone-induced cytotoxicity by measuring inhibition of cell proliferation at 25 uM pretreated for 2 hrs followed by mitoxantrone addition and measured after 44 hrs by MTT assay (reference value: 24 +/- 3%); format: cell-based; conditions: for inhibition (INH): 25 µM
T1 sequence (Q9UNQ0 whole entry): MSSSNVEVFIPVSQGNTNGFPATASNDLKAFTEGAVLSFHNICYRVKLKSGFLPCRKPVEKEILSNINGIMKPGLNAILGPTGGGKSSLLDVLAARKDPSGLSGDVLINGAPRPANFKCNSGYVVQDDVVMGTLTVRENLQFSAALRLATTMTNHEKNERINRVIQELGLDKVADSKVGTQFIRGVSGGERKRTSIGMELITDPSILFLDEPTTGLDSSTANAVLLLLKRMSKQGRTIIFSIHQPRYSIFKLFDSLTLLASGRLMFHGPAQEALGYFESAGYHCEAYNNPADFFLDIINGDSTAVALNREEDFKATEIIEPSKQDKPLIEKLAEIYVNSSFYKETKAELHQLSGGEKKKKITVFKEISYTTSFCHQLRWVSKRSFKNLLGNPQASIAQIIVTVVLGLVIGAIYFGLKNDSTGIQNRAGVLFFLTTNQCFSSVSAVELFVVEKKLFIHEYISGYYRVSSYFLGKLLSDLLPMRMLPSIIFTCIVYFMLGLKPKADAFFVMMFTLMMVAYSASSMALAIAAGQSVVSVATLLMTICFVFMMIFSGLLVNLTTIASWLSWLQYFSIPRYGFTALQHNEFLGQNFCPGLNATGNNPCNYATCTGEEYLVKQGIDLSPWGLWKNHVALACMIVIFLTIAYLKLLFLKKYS

[5] = Cytotoxicity against human NCI-H460/MX20 cells assessed as inhibition of cell viability incubated for 2 hrs by MTT assay; format: cell-based; conditions: NCI-H460/MX20, 2 h
[6] = biological target: T1, Broad substrate specificity ATP-binding cassette transporter ABCG2; experiment: Reversal of ABCG2-mediated multidrug resistance in human NCI-H460/MX20 cells assessed as potentiation of mitoxantrone-induced cytotoxicity by measuring inhibition of cell proliferation pretreated for 2 hrs followed by mitoxantrone addition and measured after 44 hrs by MTT assay; format: cell-based
[7] = Metabolic stability in human liver microsomes assessed as compound remaining at 100 uM incubated for 1 hr by HPLC analysis; format: ADME, Microsome; conditions: read-out: Stability
[8] = test system: HEK293; experiment: Reversal of ABCG2 482-G2 mutant (unknown origin) expressed in HEK293 cells-mediated multidrug resistance assessed as potentiation of mitoxantrone-induced cytotoxicity at 5 uM pretreated for 2 hrs followed by mitoxantrone addition and measured after 44 hrs by MTT assay; format: cell-based; conditions: Homo sapiens
[9] = test system: HEK293; experiment: Reversal of ABCG2 482-T7 mutant (unknown origin) expressed in HEK293 cells-mediated multidrug resistance assessed as potentiation of mitoxantrone-induced cytotoxicity at 5 uM pretreated for 2 hrs followed by mitoxantrone addition and measured after 44 hrs by MTT assay; format: cell-based; conditions: Homo sapiens
[10] = biological target: T1, Broad substrate specificity ATP-binding cassette transporter ABCG2; experiment: as §1, with “10” for “25”; format: cell-based; conditions: for inhibition (INH): 10 µM
[11] = biological target: T1, Broad substrate specificity ATP-binding cassette transporter ABCG2; experiment: as §1, with “1” for “25”; format: cell-based

SMILES | Activity [1] [µM] | Activity [2] [µM] | IC50 ([3]; read-out: IC50) [µM] | IC50 [5] [µM] | also measured
O=C(c1ccc(O)cc1O)c1c[nH]c2cccc(O)c12 | 25 | 25 | > 100 | > 100 | inhibition at 25 µM [4]: > 87%; inhibition (INH) [6]: Dose-dependent effect
COc1ccc(C(=O)c2ccc3[nH]cc(C(=O)c4ccc(OC)cc4OC)c3c2OC)c(OC)c1 | 25 | 25 | > 100 | 68.7 | inhibition at 25 µM [4]: > 87%; inhibition (INH) [6]: Dose-dependent effect
O=C(c1cc(O)c(O)c(O)c1)c1c[nH]c2cccc(O)c12 | 25 | 25 | > 100 | > 100 | –
COc1ccc2c3c([nH]c2c1)[C@H](CC(C)C)N1C(=O)[C@H](CCC(=O)OC(C)(C)C)NC(=O)[C@@H]1C3 | – | – | – | – | remaining at 1 h, 100 µM [7]: 23%; Activity [8]: Active; Activity [9]: Active
COc1ccc(C(=O)c2c[nH]c3c(OC)cccc23)c(OC)c1 | 10 | 10 | > 100 | > 100 | inhibition (INH) [10]: Active
COc1ccc2[nH]cc(C(=O)c3cc(OC)c(OC)c(OC)c3)c2c1 | 1 | 1 | 4.9 | 5.82 | inhibition (INH) [11]: Active
COc1ccc2[nH]cc(C(=O)c3ccccc3OC)c2c1 | 1 | 1 | 46.2 | 61.9 | inhibition (INH) [11]: Active
O=C(c1ccccc1O)c1c[nH]c2ccc(O)cc12 | 25 | 25 | > 100 | > 100 | inhibition at 25 µM [4]: > 87%; inhibition (INH) [6]: Dose-dependent effect
COc1ccc2[nH]cc(C(=O)c3c(OC)cccc3OC)c2c1 | 1 | 1 | > 100 | > 100 | inhibition (INH) [11]: Active
O=C(c1ccc(O)cc1)c1c[nH]c2cccc(O)c12 | 25 | 25 | > 100 | > 100 | inhibition at 25 µM [4]: > 87%; inhibition (INH) [6]: Dose-dependent effect
O=C(c1cccc(O)c1)c1c[nH]c2ccc(O)cc12 | 25 | 25 | > 100 | > 100 | –
O=C(c1ccc(O)cc1O)c1c[nH]c2c(O)cccc12 | 10 | 10 | > 100 | > 100 | –
COc1ccc(C(=O)c2c[nH]c3cccc(OC)c23)c(OC)c1 | 25 | 25 | > 100 | > 100 | inhibition (INH) [4]: Active
O=C(c1c(O)cccc1O)c1c[nH]c2ccc(O)cc12 | 10 | 10 | > 100 | > 100 | –
COc1ccc(C(=O)c2c(OC)ccc3cc(OC)ccc23)c(OC)c1 | 10 | 10 | 86.2 | 84 | inhibition (INH) [4]: Not Active
O=C(c1ccc(O)cc1O)c1c[nH]c2ccc(O)cc12 | 25 | 25 | > 100 | > 100 | inhibition (INH) [4]: Active
COc1ccc(C(=O)c2c[nH]c3ccc(OC)cc23)c(OC)c1 | 25 | 25 | > 100 | > 100 | inhibition (INH) [4]: Active
O=C(c1cc(O)c(O)c(O)c1)c1c[nH]c2ccc(O)cc12 | 25 | 25 | > 100 | > 100 | –
O=C1c2c(O)ccc(O)c2C(=O)c2c(NCCNCCO)ccc(NCCNCCO)c21 [MITOXANTRONE] | – | – | – | 40.6 | IC50 [3]: 0.36 µM
COc1cc(C(=O)c2c[nH]c3cccc(OC)c23)cc(OC)c1OC | 1 | 1 | > 100 | > 100 | inhibition (INH) [11]: Active
COc1cccc(C(=O)c2c[nH]c3ccc(OC)cc23)c1 | 10 | 10 | > 100 | 53.2 | inhibition (INH) [6]: Dose-dependent effect; inhibition at 10 µM [10]: > 87%
O=C(c1ccc(O)cc1)c1c[nH]c2ccc(O)cc12 | 25 | 25 | > 100 | > 100 | inhibition (INH) [4]: Active
O=C(c1ccc(O)cc1)c1ccc2[nH]cc(C(=O)c3ccc(O)cc3)c2c1O | 25 | 25 | > 100 | > 100 | –
COc1ccc(C(=O)c2c[nH]c3cccc(OC)c23)cc1 | 10 | 10 | > 100 | > 100 | inhibition (INH) [10]: Active
